Laboratory results reported in patent US4503076A, “Vasodilator compound and pharmaceutical compositions therefrom” (Ausonia Farmaceutic s.r.l., priority 1981, dated 1985).
Read-outs that look alike come from different tables or passages of the source.

How the values were obtained:
Solubility = format: physicochemical
[1] = Acute toxicity (DL50) in mice; conditions: mouse, in vivo
Source text: The DL50 has been determined in mice by the oral as well as intraperitoneal route.

[2] = test system: lower limb of rats (vascular zone); test: Vasodilator activity, perfusion of the lower limb of rats (Foster et al.); conditions: for inhibition at 50 µg/mL: read-out: Decrease in pressure, %
Source text: (Foster et al., J.Pharmacol.Exp.Ther. 89,256,1947)
This study has been carried out in rats by perfusion of the lower limb while determining the variation of the resistance offered by the vascular zone after the perfusion by means of a suitable pressure transducer.
The vaso-constricting agent used is a solution containing a high content of potassium, together with papaverine, the latter being used for comparison purposes.

[3] = test system: rats having normal blood pressure; test: Hypotensive activity in rats having normal blood pressure; format: in vivo; conditions: for Time of maximum hypotensive effect: i.p., rats with normal blood pressure
Description: The product has been administered by the intraperitoneal route to rats having normal blood pressure in the dose of 10 and 25 mg/kg. The systolic pressure of the animals has been measured 1, 4, and 24 hours respectively after the treatment using hydralazine in the dose of 1 mg/kg intraperitoneally for comparison. […] When the substance is administered in the dose of 25 mg/kg, the decrease in the systolic pressure is 2.5 times the decrease caused by hydralazine administered in the dose of 1 mg/kg.

[4] = test system: rats having genetically high blood pressure; test: Antihypertensive activity in rats having genetically high blood pressure; format: in vivo; conditions: 25 mg/kg orally
Description: There are utilized for this test rats having genetically high blood pressure. The rats are treated for three days with AF 544 in the dose of 25 mg/kg orally. After each treatment and specifically after 1, 4, 8 and 24 hours respectively, the systolic pressure of the animals is measured.

[5] = test system: rats treated to cause an increase in blood pressure by tying the abdominal aorta; test: Antihypertensive activity in rats with tied abdominal aorta, blood pressure; format: in vivo
Description: (§1) In a second experiment, the substance AF 544 has been administered to rats which have been treated to cause an increase in blood pressure, specifically by tying the abdominal aorta. The administration has been carried out by the oral route in the dose of 20 and 40 mg/kg respectively. Measurements of diastolic pressure, systolic pressure and average pressure are made after 1, 15, and 30 minutes. After 30 minutes, for each group, determinations are made of the hematic renin and the hematic angiotensin. The dose of 20 mg/kg is found to reduce the diastolic pressure of 10-15% while the systolic pressure and the average pressure remain unchanged. On the other hand, the dose of 40 mg/kg is found to be effective on all three parameters, causing an average reduction of about 25%.

renin = test: Hematic renin in rats with tied abdominal aorta; format: in vivo; conditions: 20 and 40 mg/kg oral, after 30 minutes
Description: as §1

angiotensin = test: Hematic angiotensin in rats with tied abdominal aorta; format: in vivo; conditions: 20 and 40 mg/kg oral, after 30 minutes
Description: as §1

anaesthesized cats = test: Effect on the circulation and on breathing of anaesthetized cats; format: in vivo
Description: For this test, six cats of both sexes are used. The animals had been brought to a state of anaesthesia by means of urethane. The substance AF 544 is administered by the endovenous route in the dose of 0.1-1 mg/kg. The following parameters have been studied: average arterial pressure, amplitude and respiratory frequency, effect on pressure responses to various agonists, (acetylcholine, adrenaline, occlusion of the carotid artery, and vagal stimulation).

[6] = test system: isolated small intestine (ileum) of guinea pigs; test: Spasmolytic activity in vitro on the isolated small intestine (ileum) of guinea pigs, barium chloride as agonist; conditions: 10^-6 g/cc; for % inhibition: incubation 1 minute, BaCl2 2.10^-6 g/cc
Description: The tests are carried out in vitro utilizing the isolated small intestine of guinea pigs. As agonist, there is used barium chloride in the dose of 2.10^-6 g/cc. The substance AF 544 and papaverine, which is a substance having well-known spasmolytic activity, are tested in the same concentration of 10^-6 g/cc.

[7] = perfused rat lower limb, dose 5.10^-5 g/cc, high-potassium vasoconstriction

Structure (SMILES): CC(=N)Nc1c(Cl)cccc1Cl
- Solubility in water (Solubility; in water): soluble in water

Structure (SMILES): CC(=N)Nc1c(Cl)cccc1Cl [AF 544, N-(2,6-dichlorophenyl)acetamidine]
- LD50 ([1]; ip): 170 mg/kg
- LD50 ([1]; po, orally): 420 mg/kg
- Vasodilator activity (in words) ([2]; compared with papaverine at equal dose): substantial vasodilator activity, which is only slightly inferior to that of papaverine at equal dose
- Decrease in pressure, mm Hg ± e.s [2, 7]: 60 ± 3.2 mm Hg
- inhibition at 50 µg/mL [2, 7]: 27.5%
- Percentage variation of systolic pressure with respect to the basal values ([3]; 10 mg/kg i.p., 1 hour): -1.5 ± 1.8%
- Percentage variation of systolic pressure with respect to the basal values ([3]; 10 mg/kg i.p., 4 hours): -13.1 ± 6.8%
- Percentage variation of systolic pressure with respect to the basal values ([3]; 25 mg/kg i.p., 1 hour): -6.6 ± 13.4%
- Percentage variation of systolic pressure with respect to the basal values ([3]; 25 mg/kg i.p., 4 hours): -46.2 ± 3.4%
- Percentage variation of systolic pressure with respect to the basal values ([3]; 25 mg/kg i.p., 24 hours): -2.2 ± 2.8%
- Dose dependence of hypotensive activity ([3]; 10 and 25 mg/kg i.p.): depends on the dose
- Decrease in systolic pressure relative to the decrease caused by hydralazine ([3]; AF 544 25 mg/kg i.p. vs hydralazine 1 mg/kg i.p.): 2.5 times
- Time of maximum hypotensive effect [3]: reaches the maximum effect during the fourth hour
- Time of maximum decrease of pressure [4]: between the fourth and eighth hour
- Percentage variation of (systolic) pressure with respect to the basal values of the first day ([4]; day 1, 1 hour): -5%
- Percentage variation of (systolic) pressure with respect to the basal values of the first day ([4]; day 1, 4 hours): -20%
- Percentage variation of (systolic) pressure with respect to the basal values of the first day ([4]; day 1, 8 hours): -18%
- Percentage variation of (systolic) pressure with respect to the basal values of the first day ([4]; day 1, 24 hours): -19%
- Percentage variation of (systolic) pressure with respect to the basal values of the first day ([4]; day 2, 1 hour): -26%
- Percentage variation of (systolic) pressure with respect to the basal values of the first day ([4]; day 2, 4 hours): -20%
- Percentage variation of (systolic) pressure with respect to the basal values of the first day ([4]; day 2, 8 hours): -27%
- Percentage variation of (systolic) pressure with respect to the basal values of the first day ([4]; day 2, 24 hours): -28%
- Percentage variation of (systolic) pressure with respect to the basal values of the first day ([4]; day 3, 1 hour): -22%
- Percentage variation of (systolic) pressure with respect to the basal values of the first day ([4]; day 3, 4 hours): -11%
- Percentage variation of (systolic) pressure with respect to the basal values of the first day ([4]; day 3, 8 hours): -15%
- Percentage variation of (systolic) pressure with respect to the basal values of the first day ([4]; day 3, 24 hours): -12%
- Decrease of pressure at the twenty-fourth hour (in words) ([4]; relative to the maximum at 4-8 hours): remaining about the same during the twenty-fourth hour
- Effect on average pressure ([5]; 20 mg/kg oral): unchanged
- Effect on systolic pressure ([5]; 20 mg/kg oral): unchanged
- Reduction of diastolic pressure ([5]; 20 mg/kg oral): 10-15%
- Average reduction of all three parameters (diastolic, systolic and average pressure) ([5]; 40 mg/kg oral): about 25%
- Activity of renin (renin): increases in proportion to the dose of AF 544
- Quantity of angiotensin (angiotensin): an increase in the quantity of angiotensin occurs, which is inversely proportional to the dose of AF 544
- Effect in % on pressure response to acetylcholine (anaesthesized cats; 0.1 mg/kg i.v.): +5.0%
- Effect in % on pressure response to adrenaline (anaesthesized cats; 0.1 mg/kg i.v.): -25.6%
- Effect in % on pressure response to carotid occlusion (anaesthesized cats; 0.1 mg/kg i.v.): +3.5%
- Effect in % on pressure response to vagal stimulation (anaesthesized cats; 0.1 mg/kg i.v.): +11.5%
- Effect on arterial pressure, % (anaesthesized cats; 0.1 mg/kg i.v.): -13.9%
- Effect on arterial pressure, mm Hg ± e.s (anaesthesized cats; 0.1 mg/kg i.v.): -12.5 mm Hg
- Respiration, amplitude % (anaesthesized cats; 0.1 mg/kg i.v.): +50.9%
- Respiration, frequency % (anaesthesized cats; 0.1 mg/kg i.v.): +31.4%
- Transitory hypotension (anaesthesized cats; 0.1 mg/kg intravenously): 13.9%
- Effect in % on pressure response to acetylcholine (anaesthesized cats; 1 mg/kg i.v.): +4.5%
- Effect in % on pressure response to adrenaline (anaesthesized cats; 1 mg/kg i.v.): +4.0%
- Effect in % on pressure response to carotid occlusion (anaesthesized cats; 1 mg/kg i.v.): +2.5%
- Effect in % on pressure response to vagal stimulation (anaesthesized cats; 1 mg/kg i.v.): +20.4%
- Effect on arterial pressure, % (anaesthesized cats; 1 mg/kg i.v.): -46.0%
- Effect on arterial pressure, mm Hg ± e.s (anaesthesized cats; 1 mg/kg i.v.): -36.7 mm Hg
- Respiration, amplitude % (anaesthesized cats; 1 mg/kg i.v.): +16.1%
- Respiration, frequency % (anaesthesized cats; 1 mg/kg i.v.): -8.5%
- Transitory hypotension (anaesthesized cats; 1 mg/kg intravenously): 46.0%
- Variations of the other parameters observed (in words) (anaesthesized cats; 0.1-1 mg/kg i.v., respiration, responses to agonists): small and statistically they are not significant
- Spasmolytic activity (in words) ([6]; efficacy compared with papaverine in the same concentration): high spasmolytic activity with an efficacy which is statistically analogous to that of papaverine in the same concentration
- % inhibition [6]: 49.8 ± 7.44%
- Solubility in common organic solvents (Solubility; by heating, common organic solvents): soluble by heating in common organic solvents

Structure (SMILES): NNc1nncc2ccccc12 [HYDRALAZINE, hydralazine, reference compound]
- Percentage variation of systolic pressure with respect to the basal values ([3]; 1 mg/kg i.p., 1 hour): +21.0 ± 4.9%
- Percentage variation of systolic pressure with respect to the basal values ([3]; 1 mg/kg i.p., 4 hours): -18.0 ± 3.1%
- Percentage variation of systolic pressure with respect to the basal values ([3]; 1 mg/kg i.p., 24 hours): -7.5 ± 7.8%
- Time of maximum hypotensive effect [3]: reaches the maximum even during the first hour

Structure (SMILES): COc1ccc(Cc2nccc3cc(OC)c(OC)cc23)cc1OC [PAPAVERINE, papaverine, reference compound]
- inhibition at 50 µg/mL ([2]; Rattus norvegicus): 39.3%
- Decrease in pressure, mm Hg ± e.s [2, 7]: 82 ± 13.6 mm Hg
- % inhibition [6]: 73.7 ± 8.09%
